One test addresses T1, AmpC β-lactamase (Escherichia coli, UniProt P00811).
T1 construct: made in house
Description: biochemical. It counts as biochemical. The settings on record: for Ki: 50 mM TRIS pH 7.0, nitrocefin substrate, progress curve analysis; for change of AmpC inhibition/binding relative to compound 1: analogs of 1. As for the experimental part: Enzymology. AmpC from Escherichia coli was expressed and purified to homogeneity as described in the literature. […] All were used without further purification. Kinetic measurements with AmpC were performed in 50 mM TRIS buffer, pH 7.0, using nitrocefin as a substrate. […] Reactions were initiated by the addition of 0.875 nM enzyme and monitored in methacrylate cuvettes. […] Ki values for the compounds were obtained by comparison of progress curves in the presence and absence of inhibitor.

A further test concerns the target T2, α-chymotrypsin (Bos taurus, UniProt P00766).
T2 construct: purchased Sigma (St. Louis, Mo.); host or cells: bovine pancreas
Description: biochemical. Also noted: species or system bovine. As to conditions: 200 μM substrate, 50 mM TRIS pH 7.0, 25° C. Here is the method: (§1) The substrates for α-chymotrypsin (succinyl-ala-ala-pro-phe-p-nitroanilide) and β-trypsin (N-benzoyl-L-arginine ethyl ester, BAEE) were also purchased from Sigma. The elastase substrate used (elastase substrate 1, MeOSuc-Ala-Ala-Pro-Val-pNA) was purchased from Calbiochem (San Diego, Calif.). Substrates were diluted from 10 mM DMSO stock solutions, and all reactions were performed in 50 mM TRIS buffer, pH 7.0, 25° C. For α-chymotrypsin, 200 μM of substrate was used; the reactions were initiated by addition of 10 μL of a 0.1 mg/ml enzyme stock solution and monitored at 410 nm. For β-trypsin, 200 μM of BAEE was used, the reactions were initiated by the addition of 5 μL of a 0.2 mg/ml enzyme stock solution, and monitored at 260 nm. For elastase, 640 μM of elastase substrate was used, the reactions were initiated by the addition of 30 μL of a 0.2 mg/mL enzyme stock solution, and monitored at 385 nm. Initial rate fits to the absorbance data for the first 150 seconds of each reaction were used to determine reaction velocities.

The target of another test is T3, β-trypsin (Bos taurus, UniProt P00760).
T3 construct: β-trypsin (bovine pancreatic); purchased Sigma (St. Louis, Mo.); host or cells: bovine pancreas
The experiment in a line: biochemical. In kind it is biochemical, bovine. Here is the method:
as §1

A further test deals with T4, elastase (Sus scrofa, UniProt P00772).
T4 construct: purchased Sigma (St. Louis, Mo.); host or cells: porcine pancreas
The experiment in a line: elastase selectivity counter-screen. In kind it is biochemical, porcine. Here is the method:
as §1
A general note: The purpose of a counterscreen is to sort out artefacts and off-target activity.

The subject of test [1] is JM109 E. coli expressing AmpC. The experiment in a line: Antimicrobial susceptibility testing (MIC), AmpC-expressing strain. In kind it is cell-based. Here is the method:
(§2) Antimicrobial experiments. Susceptibility testing was performed and interpreted following the guidelines of the National Committee for Clinical Laboratory Standards. To test the inhibitory activity of 1, the compound was dissolved in 50% DMSO and dilutions were performed using Luria Broth growth medium.

For another test, the system named is related serine amidases. Description: Counter-screens against related serine amidases. It counts as biochemical. Here is the method: as §1
For test [2], the system named is JM109 that does not express AmpC. Description: Antimicrobial susceptibility testing (MIC), strain without AmpC. In kind it is cell-based, E. coli. As to conditions: Escherichia coli, read-out: MIC of ampicillin in JM109 that does not express AmpC. As for the experimental part: as §2

In brackets after ≈: the same amount, converted by molar mass. Entries after “also recorded” stand apart in the source; their conditions may differ.

Consider eleven compounds from patent publication US7541381B2, “Non-covalent inhibitors of AmpC β-lactamase” (Northwestern University, priority 2002, dated 2009).

Usually Ki stands for the equilibrium dissociation constant of an inhibitor or competing ligand from its target. A higher Ki goes with weaker binding. By IC50 is commonly meant the concentration that inhibits the measured activity by half. A higher IC50 goes with a need for much substance. By Km is commonly meant the substrate concentration at which the rate is half of its maximum.

T1 sequence (P00811 20-377): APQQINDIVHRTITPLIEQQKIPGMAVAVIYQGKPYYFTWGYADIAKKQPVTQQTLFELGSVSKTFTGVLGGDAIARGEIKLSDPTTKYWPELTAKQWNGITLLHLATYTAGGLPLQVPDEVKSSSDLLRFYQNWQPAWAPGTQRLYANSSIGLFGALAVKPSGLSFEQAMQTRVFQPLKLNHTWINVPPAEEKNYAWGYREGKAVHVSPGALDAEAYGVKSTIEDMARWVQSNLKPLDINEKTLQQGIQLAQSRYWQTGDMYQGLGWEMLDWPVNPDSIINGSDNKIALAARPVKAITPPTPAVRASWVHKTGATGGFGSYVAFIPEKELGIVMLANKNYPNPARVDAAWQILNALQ
T3 sequence (P00760 24-246): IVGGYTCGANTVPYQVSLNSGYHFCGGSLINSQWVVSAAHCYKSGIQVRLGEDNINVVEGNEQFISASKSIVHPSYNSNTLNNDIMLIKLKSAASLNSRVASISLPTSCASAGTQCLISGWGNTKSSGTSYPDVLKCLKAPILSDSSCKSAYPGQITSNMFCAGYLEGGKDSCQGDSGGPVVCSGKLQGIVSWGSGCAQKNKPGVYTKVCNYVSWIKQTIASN
T4 sequence (P00772 27-266): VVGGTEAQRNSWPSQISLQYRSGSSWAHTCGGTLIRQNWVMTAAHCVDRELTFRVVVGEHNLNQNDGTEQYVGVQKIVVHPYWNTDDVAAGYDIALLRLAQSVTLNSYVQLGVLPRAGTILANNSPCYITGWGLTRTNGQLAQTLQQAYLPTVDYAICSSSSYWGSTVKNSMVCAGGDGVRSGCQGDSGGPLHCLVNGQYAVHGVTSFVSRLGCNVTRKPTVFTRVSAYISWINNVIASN

`Cc1oc(C)c(S(=O)(=O)Nc2cccs2)c1C(=O)O` [Compound 8, 2,5-dimethyl-4-(2-thienylaminosulfonyl)furan-3-carboxylic acid]: on AmpC β-lactamase, the Ki amounted to 64 µM.
In the case of `O=S(=O)(O)CCCSc1nc2ccccc2s1` [Compound 2, 3-(2-benzothiazolylthio)-1-propanesulfonic acid], the Ki at AmpC β-lactamase amounted to 318 µM.
Turning to `O=C(O)c1sccc1S(=O)(=O)Nc1ccccc1N1CCCCC1` [Compound 7, 3-[(2-piperidinoanilino)sulfonyl]thiophene-2-carboxylic acid], on AmpC β-lactamase, the Ki worked out at 14 µM and the “change of AmpC inhibition/binding relative to compound 1” value is “slight improvement in affinity”.
The corresponding values for `COC(=O)c1sccc1S(=O)(=O)Nc1ccc(Cl)cc1` [Compound 5, methyl 3-[(4-chloroanilino)sulfonyl]thiophene-2-carboxylate] are greater than 100 µM and “compromised inhibition; also recorded: binding was somewhat problematic”.
With `O=C(O)c1sccc1S(=O)(=O)Nc1ccc(Cl)cc1` [Compound 1, 3-[(4-chloroanilino)sulfonyl]thiophene-2-carboxylic acid], at AmpC β-lactamase, the “mode of inhibition of AmpC” value is reported as “competitive, non-covalent inhibitor; also recorded: competitive, reversible inhibitor”. On AmpC β-lactamase, affinity was put at a Ki of 23 µM. In addition, the IC50 on α-chymotrypsin was greater than 1200 µM; on β-trypsin (200 μM BAEE, 50 mM TRIS pH 7.0, 25° C.), greater than 4000 µM; on elastase (640 μM elastase substrate, 50 mM TRIS pH 7.0, 25° C.) it was greater than 4000 µM. For the same compound, the inhibition of trypsin result against β-trypsin (at concentrations up to 4 mM) is given as “no inhibition”. The inhibition of elastase result on elastase (at concentrations up to 4 mM) was “no inhibition”. Besides, the “antibiotic activity of compound alone” value in test [1] (at the concentration used in the ampicillin combination) is on record as “no measurable antibiotic activity”. In test [1] (bacterial cell culture, resistant strain), the “increase in efficacy of ampicillin” value is reported as “four-fold”. The “minimum inhibitory concentration (MIC) of ampicillin in the presence of the compound” value in test [1] (resistant strain overexpressing β-lactamase) was 128 µg/mL. Also, the “inhibition of related serine amidases in counter-screens” value with related serine amidases is “did not inhibit”.
As to `O=C(Cc1cccs1)N[C@@H]1C(=O)N2C(C(=O)O)=C(/C=C/c3ccc([N+](=O)[O-])cc3[N+](=O)[O-])CS[C@H]12` [nitrocefin, reference compound], the Km at AmpC β-lactamase (read-out: Km of nitrocefin for AmpC, 50 mM TRIS buffer, pH 7.0) is 127 µM.
`O=C(O)CCSc1nc2ccccc2s1` [Compound 3, 3-(2-benzothiazolylthio)propionic acid]: the Ki on AmpC β-lactamase came to 646 µM.
With `Cc1ccc(S(=O)(=O)Nc2csc(C)c2C(=O)O)cc1` [Compound 4, 2-methyl-4-[[(4-methylphenyl)sulfonyl]amino]thiophene-3-carboxylic acid], on AmpC β-lactamase, the Ki was 60 µM and the “change of AmpC inhibition/binding relative to compound 1” value was “diminished inhibition three-fold; also recorded: reduced binding by three-fold”.
Take `CC1(C)S[C@@H]2[C@H](NC(=O)[C@H](N)c3ccccc3)C(=O)N2[C@H]1C(=O)O` [Ampicillin, ampicillin, reference compound]: the MIC in test [1] (Escherichia coli, read-out: MIC JM109/AmpC) is 512 µg/mL (≈ 1470 µM); in test [2], 4 µg/mL.
In the case of `COc1ccc(NS(=O)(=O)c2ccccc2[N+](=O)[O-])cc1` [Compound 9, N-(4-methoxyphenyl)-2-nitro-benzenesulfonamide], on AmpC β-lactamase, the Ki is greater than 100 µM and the “change of AmpC inhibition/binding relative to compound 1” value was “compromised inhibition; also recorded: binding was somewhat problematic”.
For “3-([4-[3-chloro-5-(trifluoromethyl)pyridin-2-yl]piperazino]sulfonyl)thiophene-2-carboxylate [Compound 6]” the same measures were greater than 100 µM and “hindered binding”.
